We go through 27 compounds from PubChem BioAssay (NCI).

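The compound was tested at five concentrations on cells cultured in 96-well plates, with a 48-hour exposure period. TGI is the concentration that stops growth completely.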

Assay in all cases: NCI-60 cell line screen, 48 h
Assay [1] deals with TK-10 renal.
Assay [2] deals with SK-MEL-2 melanoma.
The subject of assay [3] is HOP-62 NSCLC.
For assay [4], the system named is HCT-116 colon.
For assay [5], the system named is MALME-3M melanoma.
In assay [6] the test system is HCC-2998 colon.
Assay [7] has as its system HS 578T breast.
The test system of assay [8] is SNB-19 CNS.
Assay [9] has as its system SR leukemia.
In assay [10] the test system is NCI/ADR-RES ovarian.
In assay [11] the test system is EKVX NSCLC.

Take `CCOC(=O)C(=Cc1[nH]c2ccccc2c1-c1c[nH]c2ccccc12)C(=O)OCC`: the TGI in assay [1] is 26.1 µM; in [2], 29.6 µM; in [3], 28.1 µM; in assay [4] it was 22.8 µM; in assay [5] it was 34.4 µM; in assay [6], 25 µM. In addition, the TGI worked out at 91.3 µM in [7]; 28.3 µM in assay [8]; 32.7 µM in [9]; 47.5 µM in assay [10]; 31.8 µM in assay [11].

With `COc1ccc(C2OC[C@H]3O[C@@H](OCc4ccccc4)[C@H](O)[C@@H](O)[C@@H]3O2)cc1` (stereo partly drawn), the TGI in assay [1], in assay [2], in assay [3], in assay [4], in [6] and in [7] was more than 100 µM throughout. Also, the TGI in assay [8], in assay [9], in assay [10] and in [11] was more than 100 µM each time.

In the case of `Cn1cc(NC(=O)c2cc(NC(=O)CN=C(N)N)cn2C)cc1C(=O)NCCC(=N)N`, the TGI in assay [1], in assay [2], in assay [3], in assay [4], in assay [5] and in [6] was more than 100 µM throughout. The TGI in [7], in assay [8], in assay [9], in assay [10] and in assay [11] was more than 100 µM in each case.

In the case of `Cc1ccc(SCC(CF)OC(C)n2cnc3c(=O)[nH]c(N)nc32)cc1` (stereo not drawn), the TGI in assay [1], in [2], in assay [3], in assay [4], in assay [5] and in assay [6] was more than 100 µM in each case. Moreover, the TGI in [7], in assay [8], in [9] and in [10] was more than 100 µM throughout.

On to `O=C1CSC(c2cccc(Oc3ccccc3)c2)N1c1ccc(Cl)cc1` (stereo not drawn), for which the TGI in assay [1] was 71.9 µM; in assay [2], 40.2 µM; in assay [3], more than 100 µM; in assay [4], 37.9 µM; in assay [5], 56.7 µM; in assay [7], more than 100 µM. Further, the TGI in assay [8] is more than 100 µM; in [9], 46.9 µM; in [10] it was more than 100 µM; in assay [11], 78.7 µM.

Take `CC(=O)OCC12C(=O)C[C@@H](C)C3(CC(c4ccoc4)OC3=O)C1CCC(OC(C)=O)C21CO1` (stereo partly drawn): the TGI in [1], in assay [2], in assay [3], in [4], in assay [5] and in assay [6] was more than 100 µM each time. In addition, the TGI in assay [7], in assay [8], in assay [9] and in assay [10] was more than 100 µM throughout.

Take `CC(C)=CCC/C(C)=C/C=C/C(C)=C/C=C/C(C)=C/C=C/C=C(C)/C=C/C=C(C)/C=C/[C@H]1C(C(C)(C)O)CC[C@]1(C)O` (stereo partly drawn): the TGI is more than 100 µM in [1]; more than 100 µM in assay [2]; 40.8 µM in assay [3]; 31.2 µM in [4]; 30 µM in assay [6]; 59.1 µM in assay [7]. The TGI in [9] is 54.4 µM; in assay [10], more than 100 µM; in [11], more than 100 µM.

On to `C(=Nc1ccc(-c2nc3ccccc3[nH]2)cc1)c1cccs1`, for which the TGI in assay [1], in assay [2], in assay [3], in assay [4], in assay [5] and in assay [7] was more than 100 µM in each case. The TGI in [8], in assay [9], in [10] and in assay [11] was more than 100 µM throughout.

As for `N=C(N)c1ccc(C(NC(=O)CNS(=O)(=O)c2ccc3ccccc3c2)P(=O)(Oc2ccccc2)Oc2ccccc2)cc1` (stereo not drawn), the TGI in [2], in assay [3], in assay [4], in assay [5], in assay [6] and in [7] was more than 100 µM each time. For the same compound, the TGI in [8], in assay [9] and in [10] was more than 100 µM in each case.

Turning to `COC(CNC(=O)C(C)NC(=O)CCc1ccccc1)OC` (stereo not drawn), the TGI in assay [1], in assay [2], in [4], in assay [5], in assay [7] and in [8] was more than 100 µM throughout. Besides, the TGI in [9], in assay [10] and in assay [11] was more than 100 µM in each case.

In the case of `C=CC(CCc1ccc(C(=O)OCC)cc1)c1c(N)nc(N)[nH]c1=O` (stereo not drawn), the TGI in [1], in assay [2], in assay [3], in assay [4], in [5] and in [6] was more than 100 µM each time. In addition, the TGI in [7], in [8], in assay [9] and in assay [10] was more than 100 µM in each case.

`O=C1/C(=C/c2ccc([N+](=O)[O-])cc2)C(=O)N(c2ccccc2)C1c1ccccc1` (stereo not drawn): the TGI in [1], in assay [2], in assay [3], in assay [4], in assay [6] and in [7] was more than 10 µM each time. In addition, the TGI in assay [8], in assay [9], in assay [10] and in assay [11] was more than 10 µM throughout.

As for `CCOP(C)(=O)C(N)Cc1ccc(OC)c(OC)c1` (stereo not drawn), the TGI in assay [1], in assay [3], in [4], in [5], in assay [6] and in assay [7] was more than 100 µM in each case. The TGI in assay [8], in assay [9], in [10] and in [11] was more than 100 µM throughout.

As for `C[C@]12CCC(=O)O[C@H]1CCCCO2`, the TGI in assay [1], in [2], in assay [3], in assay [4], in [5] and in [6] was more than 100 µM each time. In addition, the TGI in [7], in assay [9], in assay [10] and in assay [11] was more than 100 µM in each case.

On to `COc1cc(Cn2c3c(c4cc(O)ccc42)Cc2ccccc2C3=O)cc(OC)c1`, for which the TGI in [1], in assay [2], in assay [3], in assay [4], in assay [5] and in [7] was more than 100 µM each time. The figures for the TGI in assay [8], in assay [9] and in assay [10] were more than 100 µM, 53.3 µM and 66.1 µM, respectively.

`CCOCc1nc2c(OC)cc(-c3nc4ccc(N5CCN(C)CC5)cc4[nH]3)c(OC)c2[nH]1`: the TGI was more than 100 µM in [1]; 40.6 µM in assay [2]; 62.8 µM in assay [3]; more than 100 µM in assay [4]; 33.5 µM in [5]; more than 100 µM in assay [7]. The TGI in [8] is more than 100 µM; in assay [9], 59.7 µM; in [10], more than 100 µM; in [11] it was more than 100 µM.

With `O=C1/C(=N/O)Cc2c(Br)ccc(Br)c21`, the TGI in assay [1] is more than 100 µM; in assay [2], 48.4 µM; in [3] it was more than 100 µM; in [4], more than 100 µM; in assay [6], more than 100 µM; in assay [7] it was more than 100 µM. The TGI in assay [9] is 74.4 µM; in assay [10] it was more than 100 µM; in assay [11] it was more than 100 µM.

`COc1cccc(-c2ccc3c4c2O[C@H]2C(=O)CC[C@@]5(O)[C@@H](C3)N(CC3CC3)CC[C@]425)c1`: the TGI in [1] came out at 32.2 µM; in assay [2], 34.1 µM; in assay [3], 35.4 µM; in [4], 33.2 µM; in assay [5], 36.4 µM; in assay [7], 29.1 µM. In addition, the TGI in [8] was 42.2 µM; in assay [9] it was 37.8 µM; in assay [10], 38.8 µM; in [11] it was 41 µM.

In the case of `O=C(O)c1ccc([N+](=O)[O-])c2cc3cnccc3nc12`, the TGI in assay [2] is 38.9 µM; in assay [3], more than 100 µM; in [4], 33 µM; in assay [5], 42.2 µM; in assay [6], 50.3 µM; in assay [7], 65.6 µM. Moreover, the TGI in [9] is more than 100 µM; in assay [10], 80.9 µM.

For the compound `O=C(NNC(=S)Nc1cccc(Cl)c1)c1cc(-c2ccccc2)nc2ccccc12`, the TGI in assay [1] is 30.8 µM; in assay [2] it was 27.7 µM; in assay [3] it was 32.1 µM; in assay [4], 30.3 µM; in [5] it was 29.9 µM; in [6], 28.2 µM. Besides, the TGI in [7] came to 41.9 µM; in assay [8] it was 33.9 µM; in [9] it was 49.9 µM; in assay [10] it was 56.2 µM.

For `CCOC(=O)c1nc2ccc(C(F)(F)F)cc2nc1NCc1cc(OC)c(OC)c(OC)c1`, the TGI in assay [1], in assay [2], in [3], in [4], in assay [6] and in [7] was more than 100 µM throughout. For the same compound, the TGI was more than 100 µM in assay [8], 48.5 µM in assay [9], more than 100 µM in assay [10] and more than 100 µM in [11].

As for `O=Cc1ccc2c(c1)CC1(Cc3ccccc3C1)C2`, the TGI in [1] was more than 100 µM; in [2], 27.1 µM; in [3] it was 34.2 µM; in assay [4], more than 100 µM; in assay [5] it was 36.3 µM; in assay [6] it was more than 100 µM. Moreover, the TGI in assay [7] was more than 100 µM; in [9], 18.4 µM; in assay [10], 79.8 µM; in assay [11] it was more than 100 µM.

In the case of `O=C1C=CC[C@H]2O[C@@H](COC(=O)Cc3ccccc3)C[C@H]2O1`, the TGI in assay [1] was 65.5 µM; in assay [2] it was more than 100 µM; in [3], more than 100 µM; in [7], 59.4 µM; in assay [8], more than 100 µM; in assay [9] it was more than 100 µM. Moreover, the figures for the TGI in [10] and in [11] were more than 100 µM and 70.1 µM, respectively.

In the case of `CCOC(=O)/C=C(/C(=O)OCC)n1ccc(=O)n(Cc2cn(COCCOC(C)=O)nn2)c1=O`, the TGI was 32 µM in assay [1]; 64.4 µM in assay [2]; more than 100 µM in assay [3]; 80.8 µM in assay [4]; 36.2 µM in assay [6]; 70.9 µM in assay [7]. In addition, the TGI in assay [8] was more than 100 µM; in [9], 52.6 µM; in [10], 48.1 µM; in assay [11], 30.6 µM.

`CC1(C)NC2C(=O)c3c([nH]c4ccccc34)[C@]3(C)CCC1CC23` (stereo partly drawn): the TGI in assay [1], in assay [2], in [3], in assay [4], in [5] and in assay [6] was more than 100 µM each time. Further, the TGI in assay [7], in [9], in assay [10] and in assay [11] was more than 100 µM in each case.

On to `COc1cc(C(=O)N(Cc2cccnc2)C(=S)N(Cc2cccnc2)C(=O)c2cc(OC)c(OC)c(OC)c2)cc(OC)c1OC`, for which the TGI in assay [1] is more than 100 µM; in assay [3], more than 100 µM; in assay [4], more than 100 µM; in [5] it was more than 100 µM; in [6] it was 62.2 µM; in assay [7], more than 100 µM. The TGI in [8], in [9], in assay [10] and in assay [11] was more than 100 µM in each case.

For the compound `Cc1ccc(/C=C2\CCCc3ccccc3C2=O)cc1`, the TGI in assay [1] is more than 100 µM; in assay [2] it was 9.07 µM; in [3] it was 60.6 µM; in [4], 29.1 µM; in assay [5] it was 34.5 µM; in [7], 30.8 µM. Also, the TGI is 89.2 µM in assay [8], 37.1 µM in assay [9], 99.3 µM in [10] and 60.9 µM in assay [11].
